Patent US20240018146A1, “COMPOSITIONS AND METHODS OF USING THE SAME FOR TREATMENT OF NEURODEGENERATIVE AND MITOCHONDRIAL DISEASE” (MITOKININ, INC., priority 2020, published 2024)
Where two headings read alike, the source gives them in different places.

What was measured:
Format in all cases: cell-based
HeLa MKYP cells [1] = assay: Human mitophagy assay (HeLa mKeima assay, FACS); conditions: read-out: Mitophagy induction EC50
Procedure, shortened: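 HeLa cells carrying the pH-sensitive mtKeima tag incubated 16 h with compound at several concentrations, then 1 uM FCCP/oligomycin for 6 h. FACS detects mitochondria in lysosomes through the Keima emission shift, quantified as percentage of cells in mitophagy.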

HeLa MKYP cells [2] = assay: Cell death measured by DAPI staining, with 1 μM FCCP/oligomycin or no toxin (no FO)
Procedure, shortened: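 HeLa MKYP cells were treated with compounds alongside 1 μM FCCP/oligomycin or no toxin for 6 or 6.5 h. Cell death was scored by DAPI staining, with H2O2 treatment as the death control.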

[3] = Mitotoxicity / Mitotox safety margin (therapeutic window)

| Structure (SMILES) | EC50 (HeLa MKYP cells [1]; Homo sapiens, HeLa) [µM] | Highest safe dose (cytotoxicity; no FO; safe means DAPI+ <20%) (HeLa MKYP cells [2]) [µM] | Max % death with 1 μM FO (HeLa MKYP cells [2]) [%] | Mito-Safety Index (highest safe dose/EC50) [3] | Highest safe dose (μM) (mitotox or cytotox) [3] [µM] | EC50 (HeLa MKYP cells [1]) [µM] |
| --- | --- | --- | --- | --- | --- | --- |
| Fc1ccc2c(c1)CC[C@H](N1C[C@@H]3COC[C@H]3C1)[C@H]2Nc1ncnc2[nH]c(C3CC3)cc12 [EP-0040669] | 0.35 | 25.0 | 29.9 | 71.36 | 25.0 | – |
| FC(F)(F)c1cc2c(NC3c4ccccc4OCC3N3C[C@@H]4COC[C@H]4C3)ncnc2[nH]1 (some centres unmarked) [EP-0040677] | 0.32 | 25.0 | 11.1 | 77.08 | 25.0 | – |
| FC(F)(F)c1cc2c(NC3c4ccccc4OCC3N3C[C@H]4COC[C@@H]4C3)ncnc2[nH]1 (some centres unmarked) [EP-0040678] | 0.86 | 25.0 | 9.2 | 28.90 | 25.0 | – |
| COC1CN([C@H]2CCc3ccccc3[C@@H]2Nc2ncnc3[nH]c(C(F)(F)F)cc23)C1 [EP-0040688] | 0.31 | 8.3 | 82.1 | 26.96 | 8.3 | – |
| Fc1ccc2c(c1)CC[C@H](N1C[C@H]3COC[C@@H]3C1)[C@H]2Nc1ncnc2[nH]c(C(F)(F)F)cc12 [EP-0040695] | 0.1 | 25.0 | 20.7 | 89.34 | 9.1 | – |
| COC1CN([C@H]2COc3ccccc3[C@@H]2Nc2ncnc3[nH]c(C(F)(F)F)cc23)C1 [EP-0040697] | – | 8.3 | 57.6 | 15.51 | 8.3 | 0.54 |
| COC1CN([C@H]2COc3ccccc3[C@@H]2Nc2ncnc3[nH]c(C4CC4)cc23)C1 [EP-0040702] | – | 25.0 | 7.7 | 77.26 | 25.0 | 0.32 |
| c1ccc2c(c1)CC[C@H](C1CCOCC1)[C@H]2Nc1ncnc2[nH]c(C3CC3)cc12 [EP-0040726] | 0.02 | 25.0 | 20.5 | 100.89 | 2.1 | – |
| c1ccc2c(c1)OC[C@@H](C1CCOCC1)[C@@H]2Nc1ncnc2[nH]c(C3CC3)cc12 [EP-0040729] | 0.06 | 25.0 | 17.1 | 52.06 | 3.2 | – |
| c1ccc2c(c1)CC[C@H](N1C[C@@H]3COC[C@H]3C1)[C@H]2Nc1ncnc2[nH]c(C3CC3)cc12 [EP-0040768] | 0.05 | 25.0 | 33.1 | 57.75 | 3.0 | – |
| COC1CN([C@H]2COc3ccccc3[C@@H]2Nc2ncnc3[nH]c(C4CC4)cc23)C1 [EP-0040847] | – | 25.0 | 5.2 | – | 25.0 | > 25 |
| COC1CN([C@@H]2COc3ccccc3[C@H]2Nc2ncnc3[nH]c(C4CC4)cc23)C1 [EP-0040848] | 0.16 | 25.0 | 10.6 | 152.94 | 25.0 | – |
| COC1CN([C@H]2COc3ccccc3[C@@H]2Nc2ncnc3[nH]c(C(F)(F)F)cc23)C1 [EP-0040849] | – | 25.0 | 5.2 | 2.61 | 25.0 | 9.59 |
| C[C@@H]1CN([C@@H]2COc3ccccc3[C@H]2Nc2ncnc3[nH]c(C(F)(F)F)cc23)C[C@H](C)O1 [EP-0040943] | 0.05 | 25.0 | 20.9 | 47.50 | 2.3 | – |
| C[C@@H]1CN([C@H]2COc3ccccc3[C@@H]2Nc2ncnc3[nH]c(C4CC4)cc23)C[C@H](C)O1 [EP-0040944] | 1.22 | 25.0 | 6.3 | 20.51 | 25.0 | – |
| C[C@@H]1CN([C@@H]2COc3ccccc3[C@H]2Nc2ncnc3[nH]c(C4CC4)cc23)C[C@H](C)O1 [EP-0040945] | 0.04 | 25.0 | 18.4 | 27.95 | 1.2 | – |
| C[C@@H]1CN([C@H]2COc3cc(F)ccc3[C@@H]2Nc2ncnc3[nH]c(C(F)(F)F)cc23)C[C@H](C)O1 [EP-0040946] | > 25 | – | 4.8 | – | 25.0 | – |
| C[C@@H]1CN([C@@H]2COc3cc(F)ccc3[C@H]2Nc2ncnc3[nH]c(C(F)(F)F)cc23)C[C@H](C)O1 [EP-0040947] | 0.02 | 25.0 | 16.6 | 98.61 | 2.2 | – |
| C[C@@H]1CN([C@H]2COc3cc(F)ccc3[C@@H]2Nc2ncnc3[nH]c(C4CC4)cc23)C[C@H](C)O1 [EP-0040948] | > 25 | 25.0 | 5.6 | – | 25.0 | – |
| C[C@@H]1CN([C@@H]2COc3cc(F)ccc3[C@H]2Nc2ncnc3[nH]c(C4CC4)cc23)C[C@H](C)O1 [EP-0040949] | 0.01 | 25.0 | 21.1 | 114.83 | 1.2 | – |
| C[C@@H]1CN([C@@H]2COc3ccccc3[C@H]2Nc2ncnc3[nH]c(C(F)(F)F)cc23)CCO1 [EP-0040956] | 0.19 | 25.0 | 24.7 | 52.10 | 9.7 | – |
| C[C@@H]1CN([C@@H]2COc3ccccc3[C@H]2Nc2ncnc3[nH]c(C4CC4)cc23)CCO1 [EP-0040958] | 0.06 | 25.0 | 14.1 | 29.33 | 1.7 | – |
| C[C@H]1CN([C@@H]2COc3ccccc3[C@H]2Nc2ncnc3[nH]c(C(F)(F)F)cc23)CCO1 [EP-0040980] | 0.38 | 19.4 | 14.7 | 50.83 | 19.4 | – |
| C[C@H]1CN([C@H]2COc3ccccc3[C@@H]2Nc2ncnc3[nH]c(C4CC4)cc23)CCO1 [EP-0040999] | 0.14 | 25.0 | 12.1 | 105.78 | 15.1 | – |
| C[C@@H]1CN([C@H]2COc3cc(F)ccc3[C@@H]2Nc2ncnc3[nH]c(C4CC4)cc23)CCO1 [EP-0041122] | 0.05 | 16.7 | 16.9 | 37.43 | 2.0 | – |
| C[C@H]1CN([C@@H]2COc3cc(F)ccc3[C@H]2Nc2ncnc3[nH]c(C4CC4)cc23)CCO1 [EP-0041125] | 0.16 | 25.0 | 9.6 | 45.69 | 7.4 | – |
| CO[C@H]1CCN([C@H]2COc3ccccc3[C@@H]2Nc2ncnc3[nH]c(C(F)(F)F)cc23)C1 [EP-0041172] | 0.01 | 25.0 | 8.4 | 121.36 | 1.1 | – |
| CO[C@@H]1CCN([C@H]2COc3ccccc3[C@@H]2Nc2ncnc3[nH]c(C4CC4)cc23)C1 [EP-0041451] | 0.01 | 25.0 | 6.5 | 87.93 | 0.7 | – |
| CO[C@H]1CCN([C@H]2COc3ccccc3[C@@H]2Nc2ncnc3[nH]c(C4CC4)cc23)C1 [EP-0041517] | 0.03 | 25.0 | 4.8 | 34.73 | 1.1 | – |
| COC[C@H]1CCN([C@H]2COc3ccccc3[C@@H]2Nc2ncnc3[nH]c(C4CC4)cc23)C1 [EP-0041546] | – | 25.0 | 6.6 | 21.52 | 3.6 | 0.17 |
